According to patent publication US5593835A, “Methods and kits for RNA binding compounds” (President and Fellows of Harvard College, priority 1995, dated 1997):

Experiments:
[1] = biological target: X1s1 RNA (SEQ ID NO: 3), synthetically derived from the predicted structures; experiment: Fluorescence binding measurements, X1s1 RNA; settings: K1 - high affinity; footnote b: ligand is 6'N4-pyreneacetyl tobramycin; read-out: Dissociation Constants K1(PYT)
Description: (§1) The binding of tobramycin to two cloned RNAs X1 (SEQ ID NO:2) and J6 (SEQ ID NO:5), representative of both classes of consensus sequences, was measured using the fluorescence techniques described in the exemplification.
(§2) *synthetically derived from the predicted structures
(§3) Steady state fluorescence measurements were performed on a double beam fluorescence spectrometer (Perkin-Elmer Model 512, Norwalk, Conn.). The excitation wavelength was 341 nm. All measurements were done at 20° C. in 140 mM NaCl, 5 mM KCl, 1 mM CaCl2, 1 mM MgCl2, and 20 mM HEPES, pH 7.4. The KD of the PYT and the RNA aptamer was calculated by the curve fitting of the fluorescence intensity as a function of RNA concentration, using the following equation
(§4) Competition binding measurements of antibiotics with RNA and PYT were performed at constant concentrations of PYT and RNA by monitoring fluorescence intensity changes as a function of changing concentrations of the antibiotics (a standard fluorescence curve). The KD s for the antibiotics were calculated by the curve fitting of the fluorescence intensity of PYT as a function of antibiotic concentration, using the following equation: […]

[2] = system: RNA pool transcribed from DNA after the sixth selection, bound to tobramycin affinity column; experiment: Elution of bound RNA from tobramycin affinity column; type: binding; settings: 10 column volumes of selection buffer containing 50 mM D-glucosamine
Description: Elution patterns of the RNA from the columns are shown in FIG. 4 for the second and sixth selections. Over 6 cycles of selection, the percentages of RNA specifically eluted with tobramycin were <0.1%, 3.0%, 2.9%, 26%, 55%, and 82%. […] The RNA pool transcribed from DNA after the sixth selection could not be eluted from the affinity column, even after 100 column volumes of selection buffer.
An N-hydroxysuccinimide Affi-Gel affinity column (Bio-Rad, Hercules, Calif.) was derivatized with either 20 μmoles or 0.075 μmoles tobramycin per ml of gel to generate the affinity columns. Excess N-hydroxysuccinimide linkages were blocked by adding 1M ethanolamine. The resulting column served as the support for the RNA selections. The tobramycin concentration on column was estimated as about 15 mM. Selections were performed in 1 ml column volumes in a buffer (selection buffer) containing 140 mM NaCl, 5 mM KCl, 1 mM CaCl2, 1 mM MgCl2, and 20 mM Tris acetate, pH 7.4 (Bock et al. (1992) Nature 355: 564-566). A 1 ml Affi-Gel 10 pre-column treated with ethanolamine was used in all selections.
The original double stranded DNA pool was constructed by large scale PCR amplification of the synthesized 109mer random DNA pool (Oligos, Etc., Inc., Wilsonville, Oreg.) containing 60 random nucleotides. […]

[3] = system: W13 RNA having SEQ ID NO:1; experiment: Fluorescence (PYT quenching) titration and competition binding to W13 RNA; settings: for competition with PYT binding (in words): fluorescence competition assay
Description: To study the binding behavior of clone W13, a fluorescently labelled pyrene-conjugated tobramycin derivative "PYT" was prepared.
For competitive binding studies, different concentrations of antibiotic (glucosamine (0-10 mM), erythromycin (0-6 mM), gentamicin C (0-700 μM), or neomycin B (0-650 μM)), were mixed with constant concentrations of RNA (300 nM W13) and PYT (150 nM), in Binding buffer (140 mM NaCl, 5 mM KCl, 1 mM MgCl2, 1 mM CaCl2, 20 mM HEPES, pH 7.4), 750 μl total volume, for 1-5 min. at 20° C. in a semimicro-cell cuvette. The fluorescence was measured on a Perkin-Elmer Model 512 double beam fluorescence spectrophotometer. The excitation wavelength used was 341 nm. The intensities of fluorescence emission at 380 nm were used to calculate dissociation constants. Generally 8 to 10 points were used for calculation.
as §3
(assuming a 1:1 complex): I=Io +0.5Δε ([PYT]o
-(([PYT]o +[RNA]o KI)^2 -4[PYT]o [RNA]o)^0.5)
Competition binding measurements of antibiotics with RNA and PYT were performed at constant concentrations of PYT and RNA by monitoring fluorescence intensity changes as a function of changing concentrations of the antibiotics (a standard fluorescence curve). The KD s for the antibiotics were calculated by the curve fitting of the fluorescence intensity of PYT as a function of antibiotic concentration, using the following equation:
I=Io +Δε[PYT.circle-solid.RNA]
[PYT.circle-solid.RNA]=0.5(([PYT]o +[RNA]o)([RNA]o
+KD)+KI ([T]o +[RNA]o +KD)-((([PYT]o
+[RNA]o)([RNA]o +KD)+KI ([T]o +[RNA]o
+KD))^2 -4([RNA]o +KD) [PYT]o [RNA]o
([RNA]o +KD))^0.5)([RNA]o +KD) (equation 2)
KD and KI are the dissociation constants for the antibiotic and PYT respectively.
[T]o is the total concentration of antibiotic added. Measurements were taken at least twice for each measured KD.

J6 RNA (SEQ ID NO:5) = experiment: Fluorescence binding measurements, J6 RNA; settings: K1 - high affinity; fluorescent ligand per footnote a/b; read-out: Dissociation Constants K1(PYT)
Description: as §1, §3, §4

[4] = biological target: random selected RNA pool (low stringency tobramycin column); experiment: Fluorescence assay, average binding of the random selected RNA pool; settings: overall selected pool mixture
Description: To determine whether the W13 RNA clone is representative of the average binding capacity of the random selected RNA pool, the average KD values for the random selected pool were measured. […] Therefore, the W13 RNA is representative of the average binding capacity of the random selected pool.
as §3, §4

[5] = biological target: J6a1 RNA (SEQ ID NO: 5), synthetically derived from the predicted structures; experiment: Fluorescence binding measurements, J6a1 RNA; settings: K1 - high affinity; fluorescent ligand per footnote a/b; read-out: Dissociation Constants K1(PYT)
Description: as §1, §2, §3, §4

[6] = biological target: clone W13 RNA (SEQ ID NO:1), tobramycin-selected RNA aptamer; experiment: Equilibrium dialysis binding to clone W13 RNA; settings: equilibrium dialysis, direct; read-out: KD
Description: One of these RNAs, clone W13 (SEQ ID NO:1) was chosen for quantitative studies to determine the specificity of its binding to RNA. […] The dissociation constant for tobramycin was determined to be 3 μM by competition studies with ^3 H-acetyl tobramycin. These values are close to those measured for tobramycin and ^3 H-acetyl tobramycin binding to ribosomal targets (LeGoffic et al. (1979) Eur. J. Biochem. 102: 73-81).
Equilibrium dialysis measurements were performed according to the procedure of Lorsch et al. (Biochem. (1994) 33: 973-982).

RRE region of HIV RNA = experiment: Fluorescence binding and competitive binding to RRE RNA; settings: competition, 100 nM RNA, 15 nM fluorescent tobramycin, 20° C., pH 7.4; read-out: Dissociation Constant (KD) RRE RNA
Description: In order to quantitatively determine whether fluorescently labelled tobramycin and other antibiotics bind directly to the RRE region and/or to other regions of the HIV RNA, and with what affinity, the RRE and TAR regions of HIV RNA were prepared and used in the method of the invention as target RNAs.
For binding studies, different concentrations of RRE RNA (from 0 to 300 nm) were mixed with a constant concentration (15 nM) PYT in Binding buffer (140 mM NaCl, 1 mM MgCl2, 20 mM HEPES, pH 7.4), 2 ml total volume, for 1-5 min. at 20° C. in a semimicro-cell cuvette. The fluorescence was measured on a Perkin-Elmer Model 512 double beam fluorescence spectrophotometer. The excitation wavelength used was 330 nm. The intensities of fluorescence emission at 390 nm were used to calculate dissociation constants. Generally 8 to 12 points were used for calculation.
In other competitive binding studies, TAR or RRE RNA was added at a constant concentration of 100 nM±5% and PYT at 15 nM. Different concentrations of competitive antibiotic (tobramycin (o-60 μM), gentamicin C (0-100 μM), neomycin B (0-4 μM), or lividomycin A (0-100 μM) or Rev protein (0-6 μM) were mixed with constant concentrations of RNA (100 nM TAR or RRE) and C1PYT (15 nM), in Binding buffer (140 mM NaCl, 5 mM KCl, 1 mM MgCl2, 20 mM HEPES, pH 7.4), 2 ml total volume, for 1-5 min. at 20° C. in a semimicrocell cuvette. The fluorescence was measured on a Perkin-Elmer Model 512 double beam fluorescence spectrophotometer. The excitation wavelength used was 330 nm. The intensities of fluorescence emission at 390 nm were used to calculate dissociation constants. Generally 8 to 12 points were used for calculation.
Wild type and mutant RRE RNAs were transcribed in vitro by T7 RNA polymerase using synthetic oligonucleotide templates, as described by Milligan et al. (Meth. Enzymol. (1989) 180: 51-62).
as §4

[7] = fluorescence, competition with PYT (150 nM PYT, 300 nM W13), 20° C., pH 7.4, N.B. = no measurable binding

Row | Molecule | competition with PYT binding (in words) [3] | Kd [3, 7] | Kd (RRE region of HIV RNA) | also measured
1 | N[C@@H]1[C@@H](O)[C@@H](O[C@@H]2[C@@H](O)[C@H](O[C@H]3O[C@H](CNC(=O)Cc4ccc5ccc6cccc7ccc4c5c67)[C@@H](O)C[C@H]3N)[C@@H](N)C[C@H]2N)O[C@H](CO)[C@H]1O [6'N4-pyreneacetyl tobramycin, 6'-N-4-pyreneacetyl tobramycin] |  |  |  | Kd [1]: 65.1 ± 7.4 nM
2 | N[C@H]1C(O)O[C@H](CO)[C@@H](O)[C@@H]1O (stereo partly drawn) [D-glucosamine] | did not measurably compete with PYT binding |  |  | elution of bound RNA from tobramycin affinity column (in words) [2]: did not cause any bound RNA to be eluted; KD (μM) [3, 7]: N.B.
3 | N[C@@H]1[C@@H](O)[C@@H](O[C@@H]2[C@@H](O)[C@H](O[C@H]3O[C@H](CNC(=O)CCCc4ccc5ccc6cccc7ccc4c5c67)[C@@H](O)C[C@H]3N)[C@@H](N)C[C@H]2N)O[C@H](CO)[C@H]1O [PYT, 6'-N-4-pyrenebutyryl tobramycin] |  | 20 ± 7 nM |  | Kd (J6 RNA (SEQ ID NO:5)): 5.38 ± 0.46 nM; Kd ([3]; fluorescence intensity of PYT as function of RNA concentration, 1:1 complex, 20° C., pH 7.4): 20 ± 4 nM; times more tightly bound than tobramycin ([3]; ratio of KD values, PYT vs tobramycin): more than 200 times; Kd [4]: 52 ± 8 nM; Kd [5]: 286 ± 10 nM
4 | CC(=O)NCC1OC(OC2C(N)CC(N)C(OC3OC(CO)C(O)C(N)C3O)C2O)C(N)CC1O (stereo not shown) [^3 H-acetyl tobramycin, 6-N-^3 H-Acetyl Tobramycin] |  |  |  | Kd [6]: 1300 nM
5 | CC[C@H]1OC(=O)[C@H](C)[C@@H](O[C@H]2C[C@@](C)(OC)[C@@H](O)[C@H](C)O2)[C@H](C)[C@@H](O[C@@H]2O[C@H](C)C[C@H](N(C)C)[C@H]2O)[C@](C)(O)C[C@@H](C)C(=O)[C@H](C)[C@@H](O)[C@]1(C)O [erythromycin] | only weakly inhibited PYT binding | 505000 ± 25000 nM |  | 
6 | NC[C@@H]1O[C@H](O[C@H]2[C@@H](O)[C@H](O[C@@H]3[C@@H](O)[C@H](N)C[C@H](N)[C@H]3O[C@H]3O[C@H](CO)[C@@H](O)C[C@H]3N)O[C@@H]2CO)[C@H](N)[C@@H](O)[C@@H]1O[C@H]1O[C@H](CO)[C@@H](O)[C@H](O)[C@@H]1O [lividomycin-A, lividomycin A] |  |  | 11900 ± 330 nM | 
7 | NC[C@@H]1O[C@H](O[C@H]2[C@@H](O)[C@H](O[C@@H]3[C@@H](O)[C@H](N)C[C@H](N)[C@H]3O[C@H]3O[C@H](CN)[C@@H](O)[C@H](O)[C@H]3N)O[C@@H]2CO)[C@H](N)[C@@H](O)[C@@H]1O [neomycin B] | potent inhibitors of binding |  | 419 ± 3.8 nM | 
8 | gentamicin | potent inhibitors of binding | 4700 ± 4000 nM | 10800 ± 680 nM | 
